Measured values: article PMC6274077, “In Vitro Study on Anti-Hepatitis C Virus Activity of Spatholobus suberectus Dunn” (Molecules, 2016)
Like-named read-outs stand apart in the source and are kept apart here.

Experiments:
[1] = Cytotoxicity by methylene blue assay; type: cell-based; details: human, Huh-luc/neo-ET cells
Method: The cytotoxicity of different herbal extract or components was measured by methylene blue assay. Huh-luc/neo-ET cells were seeded at a density of 7 × 10^3 cells per well in 96-well plate and treated with serial dilution of different herb extracts for 72 h. Cells were fixed and stained with 0.5% methylene blue in 50% ethanol, and then washed with tap water. After air-dry, cells were solubilized with 1% Sarkosyl and cell viability was determined from the extent absorption by spectrophotometric measurements at 595 nm (Spectra Max M5, Molecular Devices).

[2] = system: HCV genotype 1b (Con1) replicon; test: Anti-HCV luciferase reporter assay on Huh-luc/neo-ET replicon cells; details: Hepatitis C virus, GETYPE1B, 72 h
[3] = system: different subtypes of human and avian influenza viruses; details: cited from earlier work
[4] = system: HCV JFH1-GFP chimeric virus; set-up: method as in PMID 22491814; details: read-out: EC50, replication of HCV JFH1-GFP chimeric virus; cited from earlier work
J399EM virus = system: J399EM virus; set-up: method as in PMID 22491814; details: cited from earlier work
HCV entry = system: HCV entry; set-up: method as in PMID 22491814; details: cited from earlier work
[5] = read-out: Anti-HCV Activity (EC50, 72 h)
[6] = read-out: Anti-HCV Activity (EC50)
[7] = read-out: Anti-HCV Activity (EC50), in brackets as mass concentration

SMILES | IC50 at 72 h [1] [µM] | EC50 [2, 5] [µM] | EC50 [2, 6] [µM] | EC50 [2, 7] [ng/mL] | other results
Oc1cc(O)c2c(c1)O[C@H](c1ccc(O)c(O)c1)[C@@H](O)C2 [(+)-Catechin] | > 100 | > 100 | – | – | –
COc1cc(C[C@H]2CO[C@H](c3ccc(O[C@@H]4O[C@H](CO)[C@@H](O)[C@H](O)[C@H]4O)c(OC)c3)[C@H]2CO)ccc1O[C@@H]1O[C@H](CO)[C@@H](O)[C@H](O)[C@H]1O [Clemastanin B] | – | – | – | – | inhibitory concentrations against influenza viruses [3]: below 1 mg/mL
COC(=O)N[C@H](C(=O)N1CCC[C@H]1c1nc(-c2ccc(-c3ccc(-c4c[nH]c([C@@H]5CCCN5C(=O)[C@@H](NC(=O)OC)C(C)C)n4)cc3)cc2)c[nH]1)C(C)C [Daclatasvir, daclatasvir] | – | – | 8e-06 ± 1e-06 | 0.00591 | –
Oc1cc(O)c2c(c1)O[C@H](c1ccc(O)c(O)c1)[C@H](O)C2 [EC, epicatechin] | > 100 | > 100 | – | – | –
O=C(O[C@@H]1Cc2c(O)cc(O)cc2O[C@@H]1c1ccc(O)c(O)c1)c1cc(O)c(O)c(O)c1 [ECG, epicatechin gallate] | > 100 | 69.8 ± 5.62 | – | – | –
Oc1cc(O)c2c(c1)O[C@H](c1cc(O)c(O)c(O)c1)[C@H](O)C2 [EGC, epigallocatechin] | > 100 | > 100 | – | – | –
O=C(O[C@@H]1Cc2c(O)cc(O)cc2O[C@@H]1c1cc(O)c(O)c(O)c1)c1cc(O)c(O)c(O)c1 [EGCG, epigallocatechin gallate] | > 100 | 68.7 ± 4.51 | – | – | EC50 [4]: 17.9 µM; EC50 (J399EM virus): 80 µM; EC50 (HCV entry): 25 µM
O=C(O)c1cc(O)c(O)c(O)c1 [Gallic acid, gallic acid] | > 100 | > 100 | – | – | –
COc1ccc2c(O[C@@H]3C[C@H]4C(=O)N[C@]5(C(=O)NS(=O)(=O)C6CC6)C[C@H]5/C=C\CCCCN(C)C(=O)[C@@H]4C3)cc(-c3nc(C(C)C)cs3)nc2c1C [Simeprevir, simeprevir] | – | – | 0.00127 ± 0.00025 | 42.5 | –
CC(C)OC(=O)[C@H](C)N[P@](=O)(OC[C@H]1O[C@@H](n2ccc(=O)[nH]c2=O)[C@](C)(F)[C@@H]1O)Oc1ccccc1 [Sofosbuvir, sofosbuvir] | – | – | 0.0263 ± 0.0055 | 13.9 | –
CCC[C@H](NC(=O)[C@@H]1[C@H]2CCC[C@H]2CN1C(=O)[C@@H](NC(=O)[C@@H](NC(=O)c1cnccn1)C1CCCCC1)C(C)(C)C)C(=O)C(=O)NC1CC1 [Telaprevir, telaprevir] | – | – | 0.185 ± 0.035 | 126 | –
